EPA's ToxValDB 9.5 (doi:10.2903/j.efsa.2009.1354)
Converted amounts (≈) assume the structure as drawn. “And” between values parts separate entries of the source, which are not always exact repeats. Equal entries are not always repeated.

Key:
[1] = tested on: Anas platyrhynchos; settings: for LD50: acute, unspecified; for LD50 / LC50: oral, mortality; for LC50: short-term, feed
[2] = tested on: Aphidius rhopalosiphi; settings: acute; duration: 2 days; mortality
[3] = tested on: Apis mellifera; settings: acute; duration: 48 hours; dermal; mortality
[4] = tested on: Colinus virginianus; settings: for LC50 / LD50: acute, oral, mortality; for LC50: diet
[5] = tested on: Coturnix japonica; settings: acute, oral, mortality
[6] = tested on: Cucumis sativus; settings: acute; duration: 21 days; biomass
[7] = tested on: Daphnia magna; settings: chronic/long-term; duration: 21 days; reproduction
[8] = tested on: Folsomia candida; settings: chronic/long-term; duration: 28 days
[9] = tested on: Hypoaspis aculeifer; settings: chronic/long-term; duration: 16 days; reproduction
[10] = tested on: Lepomis macrochirus; settings: acute; duration: 96 hours; mortality
[11] = tested on: Oncorhynchus mykiss; settings: chronic/long-term; duration: 14 days; growth
[12] = tested on: Oryctolagus sp.; settings: acute; oral; mortality
[13] = tested on: Phasianus sp.; settings: oral, mortality; for LD50: acute, unspecified
[14] = tested on: Rattus norvegicus
[15] = tested on: Anas platyrhynchos; experiment: LC10; higher = less toxic; settings: short-term; duration: 14 days; oral; feed; mortality

**Q.** What does the source list for `CCCCN(CCCC)SN(C)C(=O)Oc1cccc2c1OC(C)(C)C2` [Carbosulfan]?
**A.** LD50 ([1]; F): 0.86 mg/kg-day; LD50 ([1]; M): 0.71 mg/kg-day; NOEL ([1]; reproductive): 2.5 mg/kg-day; LC50 ([1]; duration: 5 days): 10 mg/kg-day and 17 mg/kg-day; LC50 ([1]; duration: 14 days): 1.6 mg/kg-day; LC50 [1]: 3.99 mg/kg-day; LEL [2]: 120 g/ha; LD50 [3]: 0.18 µg/piece; LC50 ([4]; duration: 5 days): 114 mg/kg-day; LC50 ([4]; duration: 7 days): 20.8 mg/kg-day; LC50 ([4]; duration: 14 days): 15.8 mg/kg-day; LD50 ([4]; M/F): 8 mg/kg-day; LC50 [4]: 239 mg/kg-day; LD50 [4]: 82 mg/kg-day; NOEL ([4]; reproduction developmental): 10.8 mg/kg-day; LD50 ([5]; F): 3.5 mg/kg-day; LD50 ([5]; M): 4.9 mg/kg-day; LEL [6]: 1500 g/ha; NOEC [7]: 0.0032 mg/L; NOEC [8]: 0.3 mg/kg; NOEC [9]: 20 mg/kg; LC50 [10]: 0.015 µg/mL (≈ 0.0394 µM); NOEC [11]: 0.004 mg/L; LD50 [12]: 42.7 mg/kg-day; LD50 ([13]; F): 6.2 mg/kg-day; LD50 ([13]; M): 4 mg/kg-day; LD50 [13]: 20 mg/kg-day; LC50 ([13]; short-term, feed): 567 mg/kg-day; NOAEL ([14]; acute, clinical chemistry): 0.5 mg/kg-day; LD50 ([14]; acute, oral, mortality): < 5.6 mg/kg-day; NOAEL ([14]; chronic): 0.1 mg/kg-day; NOAEL ([14]; reproduction developmental, reproduction): 1.2 mg/kg-day; LC10 [15]: 0.64 mg/kg-day
